Read-outs that look alike come from different tables or passages of the source.
Key:
NMDA receptor = experiment: [3H]MK-801 binding assay, NMDA receptors in guinea pig brain membranes; conditions: for Relative affinity: compared to that of Memantine
Protocol: Hartley guinea pigs were sacrificed, and their brains were quickly removed and weighed. The brains then were homogenized in 50 mM Tris HCl buffer, pH 7.7, using a Polytron homogenizer. The homogenate was centrifuged at 40,000×g for 15 min, rehomogenized, and centrifuged again. The final pellet was resuspended in Tris-HCl, pH 7.7, at a final concentration of 6.67 mg original wet weight of tissue/ml. […] The samples were then filtered through glass fiber filters on a Tomtec cell harvester. The filters were washed 3 times with 3 ml of cold buffer. Filters were dried overnight and counted next day on a Wallac Betaplate Reader.
The binding experiments were conducted as follows. […] For each compound, graphs were prepared containing individual competition curves obtained for that compound. IC50 values and Hill coefficients were calculated using the program Prism. Ki values were calculated using the Chang Prusoff transformation: Ki=IC50/(1+L/Kd)
where L is radioligand concentration and Kd is the binding affinity of the radioligand, as determined previously by saturation analysis. […] In each experiment, one standard compound was simultaneously run on each 96 well plate.

[1] = tested on: primary neurons from rat cerebral cortex; experiment: NMDA-induced LDH release assay in primary cortical neurons (neuroprotection); type: cell-based; set-up: Total LDH (Avg): unit not given here; conditions: MDT compound 30 uM, 24 hour incubation
Protocol: The neuroprotective properties of drugs have been studied in vitro, using neurons cultured from cortex, cerebellum or retina. […] Neurotoxicity is determined in this assay by measuring lactate dehydrogenase (LDH), a method which is simple, accurate and reproducible. We conducted pilot studies to test if poly-lysine-coated plates would be suitable as a matrix upon which to plate fetal neurons, compared to astrocyte-coated plates. We also compared the use of growth medium to neurobasal medium supplemented with B27 in the pilot experiments. The concentrations of NMDA (300-500 μM), glycine (10-50 μM), and memantine (10-100 μM) were varied, and optimum concentrations and times determined from these pilot studies were then chosen for the main study. The assay is described below.
Fetal rat neocortical cells were cultured on a mouse astroglial feeder layer. To obtain mouse astroglial cells for the feeder layer, cortices were harvested from 1-day old Swiss Webster mice (Charles River, Hollister, Calif.) according to the procedure described by Rose et al (1993). After dissecting cortices in ice-cold dissecting medium, they were minced and incubated in 0.09% trypsin in media stock for 1 hr, followed by resuspension in growth medium containing 10% equine serum and 10% fetal bovine serum. A single-cell suspension was obtained by triturating through fire-bored glass pipettes, and the resulting cell suspension was plated at a density of 0.5-0.75 hemispheres/24-well plate/9.6 ml, with 0.4 ml/well. Plates were incubated in a humidified incubator at 37° C., 5% CO2. Astroglial cells become confluent in about 2-3 weeks, at which time these cultures are ready to be used as feeder layers upon which neuronal cultures can be plated. Neuronal cells were obtained from gestational Sprague-Dawley rats E16-E18, using a similar dissection procedure. Rat embryos were dissected to obtain cortical tissue, which was plated as a single-cell suspension at a density of 1.4 hemispheres/24-well plate/9.6 ml, with 0.4 ml/well. These cells were plated on the existing astroglial feeder layer, and were incubated at 37° C., 5% CO2. After 5 days in culture, cytosine arabinoside (10 μM) was added to the wells to inhibit glial cell proliferation, and after 24 hours, the medium was replaced with fresh growth medium. Cells were fed with fresh growth medium every 2 days, until the experiments were performed. For coating plates with poly-lysine, we used poly-d-lysine hydrobromide (Sigma Cat # P7280) at a concentration of 0.1 mg/ml to coat each well using a minimum volume of 0.2 ml/well. After coating for 5 minutes, the solution was aspirated and wells were rinsed thoroughly with sterile tissue culture grade water. After drying for 2 hours, plates were ready for use. Neuronal cultures were plated onto poly-lysine-coated plates at the same density as above. For the pilot study, some of the cultures were fed with 1:1 ratio of growth medium: neurobasal medium (GIBCO)+B-27 supplement (2%), while the rest of the cultures were fed with growth medium alone (Losi et al., 2006). For the main study, we used astroglial feeder layers to plate the neuronal cultures, and used a mix (1:1) of growth medium with neurobasal medium+B-27 supplement for feeding the cultures.
After 11-14 days in culture, neuronal cells were confluent and experiments were performed. Cells were washed twice using sterile Locke's buffer (154 mM NaCl, 5.6 mM KCl, 2.3 mM CaCl2, 3.6 mM NaHCO3, 5.5 mM D-glucose, 5 mM HEPES, pH 7.4), and then exposed to the various treatment compounds. […] After 15 minutes, cultures were washed twice and incubated overnight in media stock. After 24 hours, supernatants and lysates were collected to measure LDH activity. LDH activity was measured by the reduction of NAD, which was utilized in the stoichiometric conversion of a tetrazolium dye using a kit (Sigma TOX-7). Supernatants were removed from the wells and centrifuged before LDH measurements. The adherent cells were lysed to obtain total LDH. […]

[2] = guinea pig brain membrane preparation (Table 29), read-out: Ki
[3] = [3H]MK-801 (1 nM), guinea pig brain membrane preparation, read-out: Ki (binding affinity)
[4] = Plate #5, astrocyte-coated rat neurons, GM fed
[5] = Plate #4, poly-lysine-coated rat neurons, GM/NB + B-27 fed
[6] = astrocyte-coated rat neurons, GM/NB + B-27 fed

| Compound | Relative affinity (NMDA receptor) | Ki (NMDA receptor; [2]) [µM] | further results |
| --- | --- | --- | --- |
| 3-amino-triamantane [MDT-48] | 0.052 |  | Ki (NMDA receptor; [3]): 14 µM |
| CC12CC3(N)CC4C5CC(CC41)CC2C5C3 (single isomer, unassigned) [MDT-22 (prep from Example 4)] | 0.332 | 2.2 ± 0.9 |  |
| CC12CC3(N)CC4C5CC(CC41)CC2C5C3 (single isomer, unassigned) [MDT-22 (prep from Example 7)] | 0.070 | 10.5 ± 1 |  |
| NC12CC3CC4C5CC(CC41)CC2C5C3 [MDT #1] |  |  | % (Control Wash = 100) [1, 4]: 99%; Secreted LDH (Avg) [1, 4]: 0.18; Secreted/(total + secreted) (Avg) [1, 4]: 5.81; Total LDH (Avg) [1, 4]: 2.96 |
| NC12CC3CC4C5CC(CC41)CC2C5C3 [MDT #2] |  |  | % (Control Wash = 100) [1, 4]: 118%; Secreted LDH (Avg) [1, 4]: 0.23; Secreted/(total + secreted) (Avg) [1, 4]: 6.93; Total LDH (Avg) [1, 4]: 3.09 |
| NC12CC3C4CC5(N)CC3C(C1)C(C5)C4C2 [MDT #5] |  |  | % (Control Wash = 100) [1, 4]: 123%; Secreted LDH (Avg) [1, 4]: 0.25; Secreted/(total + secreted) (Avg) [1, 4]: 7.21; Total LDH (Avg) [1, 4]: 3.27 |
| OC12CC3CC4C1CC1CC4C(O)(C3)C2C1 [MDT #13] |  |  | % (Control Wash = 100) [1, 5]: 139%; Secreted LDH (Avg) [1, 5]: 0.54; Secreted/(total + secreted) (Avg) [1, 5]: 15.25; Total LDH (Avg) [1, 5]: 2.99; % (Control Wash = 100) [1, 6]: 276%; Secreted LDH (Avg) [1, 6]: 0.85; Secreted/(total + secreted) (Avg) [1, 6]: 19.97; Total LDH (Avg) [1, 6]: 3.41 |
| OC12CC3C4CC5CC3C(C1)C(C5)C4C2 [MDT-11] |  | > 1000 |  |
| OC12CC3CC4C1CC1CC4C(O)(C3)C2C1 [MDT-13] |  | > 1000 |  |
| OC12CC3C4CC5(O)CC3C(C1)C(C5)C4C2 [MDT-14] |  | > 1000 |  |
| OC12CC3C4CC5C6CC7(O)CC5C(C4C1)C(C2)(C7)C36 [MDT-15] |  | > 1000 |  |
| CC12CC3CC4C1CC1(N)CC2C(C3)C4(C)C1 [MDT-23 (prep from Example 4)] | 0.187 | 3.9 ± 0.07 |  |
| CC12CC3CC4C1CC1(N)CC2C(C3)C4(C)C1 [MDT-23 (prep from Example 5)] | 0.243 | 3 ± 0.9 |  |
| O=NC12CC3CC4C5CC(CC41)CC2C5C3 [MDT-26] |  | > 1000 |  |
| O=NC12CC3C4CC5CC3C(C1)C(C5)C4C2 [MDT-27] |  | > 1000 |  |
| CC12CC3(N)CC4C5CC(N)(CC41)CC2C5C3 [MDT-28, 1-methyl-4,9-diaminodiamantane] |  | > 1000 |  |
| CC12CC3CC4C1CC1(N)CC2C(C3)C4(C)C1 [MDT-33, 1,6-dimethyl-4-aminodiamantane] | 0.094 | 7.8 ± 0.9 |  |
| O=C(O)C12CC3CC4C5CC(CC41)CC2C5C3 [MDT-38] |  | > 1000 |  |
| O=C(O)C12CC3CC4C1CC1CC2C(C3)C4(C(=O)O)C1 [MDT-39] |  | > 1000 |  |
| OC12C3CC4CC5C3CC3C6CC(CC31)CC2(C4)C56 [MDT-40] |  | > 1000 |  |
| OC12CC3CC4C1CC1C5CC6CC1C2C(C6)(C3)C54 (stereo not shown) [MDT-41] |  | > 1000 |  |
| OC12CC3C4CC5C6CC7CC5C(C4C1)C(C7)(C2)C63 [MDT-42] |  | > 1000 |  |
| CC12CC3CC4C1CC1CC2C(O)(C3)C4(C)C1 (stereo not shown) [MDT-44, 1,6-dimethyl-2-hydroxydiamantane] |  | > 1000 |  |
| CC12CC3CC4C1CC1(C(=O)O)CC2C(C3)C4(C)C1 [MDT-46, 1,6-dimethyl-4-diamantanecarboxylic acid] |  | > 1000 |  |
| CC12CC3C4CC5(C)CC3C(C1)C(O)(C5)C4C2 [MDT-47, 4,9-dimethyl-1-hydroxydiamantane] |  | > 1000 |  |
| NC12CC3C4CC5C6CC7CC5C(C4C1)C(C7)(C2)C63 [MDT-49, 9-amino-triamantane] | 0.002 |  | Ki (NMDA receptor; [3]): 389 µM |
| CC12CC3C4CC5(C)CC3C(C1)C(C(=O)O)(C5)C4C2 [MDT-52, 4,9-dimethyl-1-diamantanecarboxylic acid] |  | > 1000 |  |
| O=C1C2CC3C4CC5CC3C1C(C5)C4C2 [MDT-59] |  | > 1000 |  |
| CC12CC3C4CC5CC3C(C1)C(C5)C4C2 [MDT-60] |  | > 1000 |  |

The next lines start with results.

| Relative affinity (NMDA receptor) | Ki (NMDA receptor; [2]) [µM] | Compound | further results |
| --- | --- | --- | --- |
| 0.159 | 4.6 ± 0.18 | 1,6-dimethyl-2-aminodiamantane mixture [MDT-6] |  |
| 0.074 | 9.9 ± 0.45 | 1,6-dimethyl-4-aminodiamantane mixture [MDT-7] |  |
| 0.097 | 7.5 ± 2.4 | NC12CC3CC4C5CC(CC41)CC2C5C3 [MDT-1] |  |
| 0.114 | 6.4 ± 0.13 | NC12CC3CC4C5CC(CC41)CC2C5C3 [MDT-2] |  |
| 0.007 | 99.6 ± 7.6 | NC12CC3CC4C1CC1CC2C(C3)C4(N)C1 [MDT-4] |  |
| 0.003 | 268 ± 19 | NC12CC3C4CC5(N)CC3C(C1)C(C5)C4C2 [MDT-5] |  |
|  | > 1000 | OC12CC3CC4C5CC(CC41)CC2C5C3 [MDT-10] |  |
| 0.018 | 41 ± 10.7 | CC12CC3CC4C1CC1(N)CC2C(C3)C4(N)C1 [MDT-29] |  |
| 0.007 | 98.6 ± 0.1 | CC12CC3CC4C1CC1(O)CC2C(C3)C4(C)C1 [MDT-45, 1,6-dimethyl-4-hydroxydiamantane] |  |
| 0.007 | 112 ± 14 | CC12CC3C4CC5(C)CC(C(C1)C3(N)C5)C4(N)C2 [MDT-53, 4,9-dimethyl-1,6-diaminodiamantane] |  |
| 0.074 | 9.8 ± 4.5 | NCC12CC3CC4C5CC(CC41)CC2C5C3 [MDT-56] |  |
| 0.183 | 4 ± 0.1 | CC(N)C12CC3CC4C5CC(CC41)CC2C5C3 (stereo not shown) [MDT-57] |  |
| 0.091 | 8 ± 0.9 | Cl.NCC12CC3C4CC5CC3C(C1)C(C5)C4C2 [MDT-61] |  |
| 0.143 | 5.1 ± 0.3 | CC12CC3C4CC5(C)CC3C(C1)C(CN)(C5)C4C2 [MDT-63] |  |

Source: patent US20080009546A1 (Chevron U.S.A. Inc., priority 2005, published 2008)
